Source: patent publication US6350759B1, “Dihydro- and tetrahydro-quinoline compounds” (Adir et Compagnie, priority 1998, dated 2002)

Test system: not given
Test: not given
Settings: not given

Compound	melting point
CC(C)(C)Oc1ccc2c(c1)C=CC1(CCCCC1)N2.Cl	132 °C
COc1ccc2c(c1)C=CC1(CCCCC1)N2.Cl	191 °C
C1=CC2(CCCCC2)Nc2ccc(Oc3ccccc3)cc21.Cl	176 °C
CCOc1c(C)c(C)c2c(c1C)C=CC1(CCCCC1)N2.Cl	158 to 161 °C
CC(C)(C)C(=O)Oc1ccc2c(c1)C=CC1(CCCCC1)N2.Cl	180 °C
CCOc1cccc2c1NC1(C=C2)CCCCC1.Cl	154 to 155 °C
CCOc1c(C(C)C)cc2c(c1C(C)C)C=CC1(CCCCC1)N2.Cl	166 to 169 °C (dec.)
CCOc1c(C)cc2c(c1C)C=CC1(CCCCC1)N2.Cl	175 to 180 °C
CCOc1c(C(C)C)cc2c(c1C(C)C)CCC(C)(C)N2.Cl	227 to 230 °C
CCOc1c(C)c(C)c2c(c1C)CCC1(CCCCC1)N2.Cl	192 to 198 °C (dec.)

Test system: Wistar rat
Test: Neuroprotection in transient and global cerebral ischaemia in the Wistar rat
Assay type: in vivo
Settings: administration 30 minutes before the start of the ischaemia; count 7 days after
Method: This animal model (Pulsinelli and Brierley, Stroke 10, 267-272, 1979), is commonly used for the detection of central anti-ischaemic agents (Buchan et al., Neurosci. Lett., 132(2), 255-258, 1991).
Under pentobarbital anaesthesia, the vertebral arteries of male Wistar rats (280-320 g, Charles River) are permanently occluded by electrocoagulation and carotid ligatures are placed around each common carotid. 24 hours later, ischaemia is brought about for […] by clamping the carotids with the carotid ligatures. This ischaemic episode causes delayed neurone death at the level of the pyramidal cells of the hippocampus. Neurone death is measured by a neurone count on sections of brain (7 μm, staining: hematoxylin-eosin) of rats sacrificed 7 days after the ischaemic episode. The results are expressed as a percentage of viable hippocampal neurones compared with the total hippocampal neurone population. […] That is true especially of the compound of Example 1, which, on administration 30 minutes before the start of the ischaemia, induces a reduction by a factor of 2.7.

Compound	reduction of hippocampal neurone death, factor
CCOc1ccc2c(c1)C=CC1(CCCCC1)N2.Cl [Example 1, 6-Ethoxy-1,2-dihydroquinoline-2-spirocyclohexane hydrochloride]	2.7

Test system: Wistar rat
Test: Delayed hippocampal neurodegeneracy induced by kainic acid in the Wistar rat
Assay type: in vivo
Settings: 150 mg/kg i.p. 30 minutes before kainic acid 12 mg/kg s.c.; count 7 days later
Method: This method is frequently used as a model of temporal epilepsy in humans (Ben-Ari, Neurosci., 14, 375-403, 1985).
Male Wistar rats (180-220 g, CERJ) are given kainic acid (12 mg/kg) by the subcutaneous route. The animals are sacrificed by decapitation 7 days later. The brains are removed and then cut, in the frozen state, into frontal sections of 7 μm, which are stained (hematoxylin-eosin). Hippocampal neurone death is assessed by a neurone count at the level of the CA3 layer of the hippocampus. The results are expressed as a percentage of viable neurones in the CA3 layer compared with the total neurone population.

Compound	reduction in neurone death (CA3 layer), factor
CCOc1ccc2c(c1)C=CC1(CCCCC1)N2.Cl [Example 1, 6-Ethoxy-1,2-dihydroquinoline-2-spirocyclohexane hydrochloride]	3

Test system: C57BL/6 mouse
Test: Antagonism of dopaminergic striatonigral dysfunctions induced by methamphetamine in the C57BL/6 mouse
Assay type: in vivo
Settings: dose 2×150 mg/kg i.p.
Method: Male mice (C57BL/6 20-25 g) are given four injections of d-methamphetamine (5 mg/kg base, i.p.) at intervals of 2 hours (Sonsalla and Heikkila, Prog. Neuro-Psychopharmacolo. & Biol. Psychiat., 12, 345-354, 1988) and the anti-oxidant being tested is administered (i.p.) 30 minutes before the first and third injections of d-methamphetamine (Yamamoto and Zhu, J. Pharmacol. Exp. Ther. 287, 107-114, 1988). The rectal temperature is monitored throughout the duration of the experiment. The animals are sacrificed by decapitation 72 hours after the last injection of d-methamphetamine. The brains are rapidly extracted, and the striata are removed, frozen in liquid nitrogen and weighed. The striata are homogenised by sonication in 20 volumes of 0.1N HClO4, and the homogenate is centrifuged at 15000 g for 20 minutes at 4° C. The supernatants are collected for assaying the striata tissue levels of dopamine by means of HPLC coupled with coulometric detection (Bonhomme et al., Brain Res., 675, 215-233, 1995). The results are expressed as μg of dopamine/g of tissue. […] That is true especially of the compound of Example 1 administered in a dose of 2×150 mg/kg i.p.

Compound	effect on dopaminergic deficit induced by methamphetamine (striatal dopamine)
CCOc1ccc2c(c1)C=CC1(CCCCC1)N2.Cl [Example 1, 6-Ethoxy-1,2-dihydroquinoline-2-spirocyclohexane hydrochloride]	oppose the dopaminergic deficit
